According to ChEMBL document CHEMBL1671744 (Antimicrob Agents Chemother, 2010):
Converted amounts (≈) assume the structure as drawn. Where a SMILES comes first, the peptide text is derived from it. [ ]: non-standard residue; d: D form. The star is where a group is joined. Lauroyl = CCCCCCCCCCCC(=O)*

Columns and labels:
[1] = test system: Staphylococcus epidermidis; test: Antimicrobial activity against methicillin-resistant Staphylococcus epidermidis; assay type: functional
[2] = test system: Staphylococcus aureus; test: Antimicrobial activity against methicillin-resistant Staphylococcus aureus; assay type: functional
[3] = test system: Escherichia coli; test: Antimicrobial activity against Escherichia coli at pH 7.4; assay type: functional
[4] = Toxicity in RBC assessed as hemolysis at 50 uM at pH 7.4; assay type: cell-based; conditions: erythrocyte, pH 7.4, 50 µM
[5] = test system: Escherichia coli; test: Antimicrobial activity against Escherichia coli at pH 5.5; assay type: functional
[6] = test system: Aspergillus fumigatus; test: Antimicrobial activity against Aspergillus fumigatus at pH 7.4; assay type: functional
[7] = test system: Aspergillus fumigatus; test: Antimicrobial activity against Aspergillus fumigatus at pH 5.5; assay type: functional

For NC[C@H]1O[C@@H](O[C@@H]2[C@@H](O[C@@H]3O[C@H](COC(=O)Nc4ccccc4)[C@@H](O[C@@H]4O[C@H](CN)[C@@H](O)[C@H](O)[C@H]4N)[C@H]3OC(=O)Nc3ccccc3)[C@@H](O)[C@H](N)C[C@@H]2N)[C@H](N)[C@@H](O)[C@@H]1O.O=C(O)C(F)(F)F, the MIC [1] was 0.5 µg/mL and the MIC [2] was 1 µg/mL.
In the case of CCCCCCCCCCCC(=O)N[C@H](CC(C)C)C(=O)N[C@@H](Cc1cnc[nH]1)C(=O)N[C@@H](Cc1cnc[nH]1)C(=O)N[C@H](CC(C)C)C(=O)N[C@H](CC(C)C)C(=O)N[C@@H](Cc1cnc[nH]1)C(=O)N[C@@H](Cc1cnc[nH]1)C(=O)N[C@H](CC(C)C)C(=O)N[C@H](CC(C)C)C(=O)N[C@@H](Cc1cnc[nH]1)C(=O)N[C@@H](Cc1cnc[nH]1)C(=O)N[C@H](CC(C)C)C(N)=O (Lauroyl-[dL]HH[dL][dL]HH[dL][dL]HH[dL]-NH2), the MIC [3] is reported as greater than 100 µM, the MHC [4] is reported as “Non-toxic” and the MIC [5] is reported as greater than 100 µM. For the same compound, the MIC [6] was greater than 100 µM and the MIC [7] was 6.2 µM (≈ 10.5 µg/mL).
